In patent publication US20230056888A1, “COMPOSITIONS COMPRISING CYANIDIN-3-GALACTOSIDE FOR USE AS VASORELAXANT” (Evonik Operations GmbH, priority 2019, published 2023):
Entries after “also recorded” stand apart in the source; their conditions may differ.

Legend:
mice mesenteric arteries = assay: Vascular reactivity of phenylephrine-precontracted mice mesenteric arteries, alone or with selective inhibitors; format: cell-based; settings: for vasorelaxant effect in presence of Akt inhibitor: Akt inh 1 μM; for vasorelaxant effect in presence of Akt inhibitor / vasorelaxant effect in presence of PI3K inhibitor LY294002: 1 h; for vasorelaxant effect in presence of L-NAME (eNOS inhibitor): L-NAME 300 μM, 30 min pre-treatment; for vasorelaxant effect in presence of PI3K inhibitor LY294002: LY294002 10 μM; for direct vasorelaxant action of single anthocyanin, compared with Healthberry 865®: increasing doses 1-100 μg/mL; for vasorelaxation reached by single anthocyanin: dose-response curves 1-100 μg/mL
[1] = system: nitric oxide production in mice mesenteric arteries; assay: Evaluation of NO production by DAF-FM in mesenteric arteries; format: cell-based; settings: HB 50 μg/mL or 100 μg/mL; single anthocyanins 50 μg/mL; comparator acetylcholine 10^-6 M
Procedure: Production of NO was assessed as previously described (Carrizzo et al. 2016). Healthberry 865®-865 (100 μg/mL) or acetylcholine (10^-6 M) was administered to the mesenteric artery in the last 30 min of 4-amino-5-methylamino-2,7,-difluorofluorescein diacetate (DAF-FM) incubation, alone and after […] exposure to L-NAME (300 μmol/L, 30 min). Mesenteric segments were cut in 5-μm thick sections, observed under a fluorescence microscope, subsequently counterstained with haematoxylin and eosin and observed under a light microscope.
FIG. 2 D) show representative high-power micrographs of 10 μm sections of mice mesenteric arteries loaded for 2 h with […] (DAF-FM) reveal nitric oxide production after treatment with acetylcholine (Ach 10^-6 M) or HB (50 μg/mL) and after 30 min of pretreatment with L-NAME (300 μmol/L), counterstained with haematoxylin and eosin (HE). Scale bar, 50 μm. E) Semiquantitative analyses of immunoblots of mice mesenteric arteries treated with HB (100 μg/mL) alone, or HB plus Akt inhibitor or LY294002, columns are the mean±SEM of three independent experiments. Statistical analyses were performed using two-way ANOVA followed Bonferroni post-hoc test. *p<0.05; **p<0.01, ***p<0.001.
FIG. 7A-D show vascular response of phenylephrine-precontracted mice mesenteric arteries to increasing doses of a combination of anthocyanins mixed with a ratio 1:1. […]

[2] = system: reactive oxygen species (ROS) in mouse mesenteric arteries; assay: Total ROS production (DHE / DHR123) in mesenteric arteries stimulated with Angiotensin II; format: cell-based; settings: 50 μg/mL, 1 hour pre-treatment, then Angiotensin II 15 minutes, confirmed by DHR123
Procedure: Dihydroethidium (DHE, Life Technologies) was used to evaluate production of reactive oxygen species (ROS) in mouse mesenteric arteries, as previously described. Briefly, vessels were incubated with 5 μM of DHE for 20 min and subsequently observed under a fluorescence microscope (Zeiss). Images were acquired by a digital camera system (Olympus Soft Imaging Solutions). […] After treatment, vessels were incubated with Krebs solution containing 5 μM DHR123 for 30 min at 37° C., and then washed two times with PBS prior to fluorescence measurement using a fluorescence microplate reader (TECAN infinite 200 Pro).
(§1) Vessels were pre-treated with single anthocyanins (50 μg/mL) for 1 hours and then stimulated with Angiotensin II for 15 minutes prior to the acquisition. […] Data are expressed as increase of chemiluminescence per minute.
(§2) Data are expressed as increase of chemiluminescence per minute. Statistical analysis were performed using One-way ANOVA followed Bonferroni post-hoc test.

NADPH oxidase = NADPH oxidase activity (lucigenin-enhanced chemiluminescence) in mesenteric arteries after Angiotensin II; format: cell-based, mice; settings: for NADPH oxidase (NOX) activity after stimulation with Angiotensin II: single anthocyanins 50 μg/mL, smaller reduction than Healthberry 865®
Procedure: Vessels were homogenized in a buffer containing protease inhibitors (mmol/L: 20 monobasic potassium phosphate, 1 EGTA, 0.01 aprotinin, 0.01 leupeptin, 0.01 pepstatin, 0.5 phenylmethylsulfonyl fluoride, pH 7.0). Protein content was measured in an aliquot of the homogenate by Bradford method. In some experiments, cells and vessels were pre-incubated with pharmacological inhibitors before measurements. The reaction was started by the addition of NADPH (0.1 mmol/l) and lucigenin (5 μmol/l) to each well. The chemiluminescence was measured using Tecan Infinite Pro M200 multimode microplate at 37° C.
as §1, §2

NADPH oxidase (NOX) activity after stimulation with Angiotensin II (NADPH oxidase)	Compound	direct vasorelaxant action of single anthocyanin, compared with Healthberry 865® (mice mesenteric arteries)	Angiotensin II-induced ROS formation [2]	also measured
–	OC[C@H]1OC(Oc2cc3c(O)cc(O)cc3[o+]c2-c2ccc(O)c(O)c2)[C@H](O)C(O)C1O (stereo partly shown) [C3-gal, Cyanidin-3-galactoside]	able to reproduce the direct vasorelaxant effect	–	vasorelaxant effect in presence of Dorsomorphin (AMPK inhibitor) (mice mesenteric arteries): completely lost its vasorelaxant capability; vasorelaxant effect in presence of Akt inhibitor (mice mesenteric arteries): did not inhibit; vasorelaxant effect in presence of L-NAME (eNOS inhibitor) (mice mesenteric arteries): significantly reduced; vasorelaxant effect in presence of PI3K inhibitor LY294002 (mice mesenteric arteries): did not inhibit; nitric oxide production (DAF-FM fluorescence) [1]: significant increase of nitric oxide production
able to reduce NOX activity	OC[C@H]1O[C@@H](Oc2cc3c(O)cc(O)cc3[o+]c2-c2ccc(O)c(O)c2)[C@H](O)[C@@H](O)[C@@H]1O [C3-glu, Cyanidin-3-glucoside]	none of the single anthocyanins was able to evoke a dose-dependent vasorelaxation comparable	able to reproduce the antioxidant action	rank of NOX activity reduction among single anthocyanins relative to Healthberry 865® (NADPH oxidase): most powerful anthocyanins
able to reduce NOX activity	C[C@@H]1O[C@@H](OC[C@H]2O[C@@H](Oc3cc4c(O)cc(O)cc4[o+]c3-c3ccc(O)c(O)c3)[C@H](O)[C@@H](O)[C@@H]2O)[C@H](O)[C@H](O)[C@H]1O [C3-rut, Cyanidin-3-rutinoside]	none of the single anthocyanins was able to evoke a dose-dependent vasorelaxation comparable; also recorded: vasorelaxant effects	able to reproduce the antioxidant action	vasorelaxation reached by single anthocyanin (mice mesenteric arteries): ~36.5%
–	Oc1cc(O)c2cc(O[C@H]3OC[C@H](O)[C@H](O)[C@H]3O)c(-c3cc(O)c(O)c(O)c3)[o+]c2c1 [DP3-ara, Delphinidin-3-arabinoside]	none of the single anthocyanins was able to evoke a dose-dependent vasorelaxation comparable; also recorded: vasorelaxant effects	–	–
–	OC[C@H]1O[C@@H](Oc2cc3c(O)cc(O)cc3[o+]c2-c2cc(O)c(O)c(O)c2)[C@H](O)[C@@H](O)[C@H]1O [DP3-gal, Delphinidin-3-galactoside]	none of the single anthocyanins was able to evoke a dose-dependent vasorelaxation comparable; also recorded: vasorelaxant effects	–	vasorelaxation reached by single anthocyanin (mice mesenteric arteries): about 32.5%
able to reduce NOX activity	OC[C@H]1O[C@@H](Oc2cc3c(O)cc(O)cc3[o+]c2-c2cc(O)c(O)c(O)c2)[C@H](O)[C@@H](O)[C@@H]1O [DP3-glu, Delphinidin-3-glucoside]	none of the single anthocyanins was able to evoke a dose-dependent vasorelaxation comparable	able to reproduce the antioxidant action	–
–	OC[C@H]1O[C@@H](Oc2cc3c(O)cc(O)cc3[o+]c2-c2cc(O)c(O)c(O)c2)[C@H](O[C@@H]2OC[C@@H](O)[C@H](O)[C@H]2O)[C@@H](O)[C@@H]1O [DP3-samb, Delphinidin-3-sambubioside]	able to reproduce the direct vasorelaxant effect	–	vasorelaxant effect in presence of Dorsomorphin (AMPK inhibitor) (mice mesenteric arteries): inhibited; vasorelaxant effect in presence of Akt inhibitor (mice mesenteric arteries): did not influence; vasorelaxant effect in presence of L-NAME (eNOS inhibitor) (mice mesenteric arteries): significantly reduced; vasorelaxant effect in presence of PI3K inhibitor LY294002 (mice mesenteric arteries): inhibited; nitric oxide production (DAF-FM fluorescence) [1]: significant increase of nitric oxide production
–	COc1cc(-c2[o+]c3cc(O)cc(O)c3cc2O[C@@H]2O[C@H](CO)[C@@H](O)[C@H](O)[C@H]2O)cc(O)c1O [PT3-glu, Petunidin-3-glucoside]	none of the single anthocyanins was able to evoke a dose-dependent vasorelaxation comparable	–	–
able to reduce NOX activity	Peonidin-3-galactoside [PEO3-gal]	none of the single anthocyanins was able to evoke a dose-dependent vasorelaxation comparable	able to reproduce the antioxidant action	–

Compound	NADPH oxidase (NOX) activity after stimulation with Angiotensin II (NADPH oxidase)	direct vasorelaxant action of single anthocyanin, compared with Healthberry 865® (mice mesenteric arteries)	Angiotensin II-induced ROS formation [2]	also measured
COc1cc(-c2[o+]c3cc(O)cc(O)c3cc2O[C@@H]2O[C@H](CO)[C@H](O)[C@H](O)[C@H]2O)cc(OC)c1O [MAL3-gal, Malvidin-3-galactoside]	able to reduce NOX activity	none of the single anthocyanins was able to evoke a dose-dependent vasorelaxation comparable	able to reproduce the antioxidant action	–
COc1cc(-c2[o+]c3cc(O)cc(O)c3cc2O[C@@H]2O[C@H](CO)[C@@H](O)[C@H](O)[C@H]2O)cc(OC)c1O [MAL3-glu, Malvidin-3-glucoside]	able to reduce NOX activity	none of the single anthocyanins was able to evoke a dose-dependent vasorelaxation comparable	able to reproduce the antioxidant action	rank of NOX activity reduction among single anthocyanins relative to Healthberry 865® (NADPH oxidase): most powerful anthocyanins
